From US5677419A, “Cyclic vasoactive peptide analogs” (Hoffmann-La Roche Inc., priority 1994, dated 1997)
Where a SMILES comes first, the peptide text is derived from it. Bridges are numbered along the chain shown (N, C = ends). [ ]: non-standard residue; d: D form. The star is where a group is joined. Tyr(3-F) = N[C@@H](Cc1ccc(O)c(F)c1)C(=O)O; Phe(4-F) = N[C@@H](Cc1ccc(F)cc1)C(=O)O; Nle = CCCC[C@H](N)C(=O)O; Acm = CC(=O)NC*

What was measured:
[1] = system: guinea pig tracheal smooth muscle; assay: Tracheal relaxant activity of VIP analogs on isolated guinea pig tracheal rings; format: cell-based; conditions: cumulative concentration response, relaxation as % of maximum response to VIP (10^-6 M=100%), three tissues pooled, linear regression
How it was run: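 Male guinea pig tracheal rings under 1.5 g resting tension in Krebs at 37° C, 95% O2/5% CO2, isometric tension. Cumulative concentration-response curves; relaxation as % of response to 10^-6 M VIP added at end; three tissues pooled, EC50 by linear regression.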

[2] = system: guinea pigs; assay: In vivo bronchodilator activity by tracheal instillation against histamine challenge; set-up: species or system guinea pig; conditions: anesthetized male guinea pigs, inhibition of histamine (i.v.)-induced rise in tracheal pressure
How it was run: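 Urethane-anaesthetised male Hartley guinea pigs (400-600 g) received compound in water by intratracheal instillation, then were paralysed, ventilated and challenged with histamine […] i.v. Tracheal pressure change gave % inhibition (≥3 animals/group); ED50 from log dose-response; duration as time until inhibition fell to 40%.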

Q: Which EC50 [1] does the source give for CCCC[C@H](NC(=O)[C@H](CCC(N)=O)NC(=O)[C@H](CCCCN)NC(=O)[C@H](CCCNC(=N)N)NC(=O)[C@H](CC(C)C)NC(=O)[C@H](CCCCN)NC(=O)[C@@H](NC(=O)[C@H](Cc1ccc(O)cc1)NC(=O)[C@H](CC(N)=O)NC(=O)[C@H](CC(=O)O)NC(=O)[C@@H](NC(=O)[C@H](Cc1ccccc1)NC(=O)[C@@H](NC(=O)[C@H](C)NC(=O)[C@H](CC(=O)O)NC(=O)[C@H](CO)NC(=O)[C@H](Cc1c[nH]cn1)NC(C)=O)C(C)C)[C@@H](C)O)[C@@H](C)O)C(=O)N[C@@H](C)C(=O)N[C@@H](C)C(=O)N[C@@H](CCCCN)C(=O)N[C@H]1CCCCNC(=O)C[C@@H](C(=O)N[C@H](C(=O)N[C@@H](CC(C)C)C(=O)N[C@H](C(N)=O)[C@@H](C)O)C(C)C)NC(=O)[C@H](CC(N)=O)NC(=O)[C@H](CC(C)C)NC(=O)[C@H](Cc2ccc(O)c(F)c2)NC1=O [SEQ ID NO:56, Ac-[Lys^12,Nle^17,Ala^19,m-F-L-Tyr^22,Asp^25,Val^26,Thr^28]-VIP cyclo (Lys^21 →Asp^25)] (Ac-HSDAVFTDNYTKLRKQ[Nle]AAKK[Tyr(3-F)]LNDVLT-NH2; lactam 21-25) here?
A: 0.52 nM

Q: And the “Bronchodilator activity of VIP analogs in guinea pigs, ED50” value (“Bronchodilator activity of VIP analogs” below) [2]?
A: 7.2 μg

Q: CCCC[C@H](NC(=O)[C@H](CCC(N)=O)NC(=O)[C@H](CCCCN)NC(=O)[C@H](CCCNC(=N)N)NC(=O)[C@H](CC(C)C)NC(=O)[C@H](CCCCN)NC(=O)[C@@H](NC(=O)[C@H](Cc1ccc(OC)cc1)NC(=O)[C@H](CC(N)=O)NC(=O)[C@H](CCC(=O)O)NC(=O)[C@@H](NC(=O)[C@H](Cc1ccccc1)NC(=O)[C@@H](NC(=O)[C@H](C)NC(=O)[C@H](CC(=O)O)NC(=O)[C@H](CO)NC(=O)[C@H](Cc1c[nH]cn1)NC(C)=O)C(C)C)[C@@H](C)O)[C@@H](C)O)C(=O)N[C@@H](C)C(=O)N[C@@H](C)C(=O)N[C@@H](CCCCN)C(=O)N[C@H]1CCCCNC(=O)C[C@@H](C(=O)N[C@@H](CC(C)C)C(=O)N[C@@H](CCCCN)C(=O)N[C@@H](CCCCN)C(N)=O)NC(=O)[C@H](CC(N)=O)NC(=O)[C@H](CC(C)C)NC(=O)[C@H](Cc2ccc(O)cc2)NC1=O [SEQ ID NO:48, Ac-[Glu^8,O-Me-Tyr^10,Lys^12,Nle^17,Ala^19,Asp^25,Leu^26, Lys^27,28]-VIP cyclo (Lys^21 →Asp^25)] (Ac-HSDAVFTENY(Me)TKLRKQ[Nle]AAKKYLNDLKK-NH2; lactam 21-25) was tested. Which EC50 [1] did it give?
A: 0.41 nM

Q: And the “Bronchodilator activity of VIP analogs” value [2]?
A: 0.094 μg

Q: CCCC[C@H](NC(=O)[C@H](CCC(N)=O)NC(=O)[C@H](CCCCN)NC(=O)[C@H](CCCNC(=N)N)NC(=O)[C@H](CC(C)C)NC(=O)[C@H](CCCCN)NC(=O)[C@@H](NC(=O)[C@H](Cc1ccc(O)cc1)NC(=O)[C@H](CC(N)=O)NC(=O)[C@H](CCC(=O)O)NC(=O)[C@@H](NC(=O)[C@H](Cc1ccccc1)NC(=O)[C@@H](NC(=O)[C@H](C)NC(=O)[C@H](CC(=O)O)NC(=O)[C@H](CO)NC(=O)[C@H](Cc1c[nH]cn1)NC(C)=O)C(C)C)[C@@H](C)O)[C@@H](C)O)C(=O)N[C@@H](C)C(=O)N[C@@H](C)C(=O)N[C@@H](CCCCN)C(=O)N[C@H]1CCCCNC(=O)C[C@@H](C(=O)N[C@@H](CC(C)C)C(=O)N[C@@H](CCCCN)C(=O)N[C@@H](CCCCN)C(=O)N[C@@H](C)C(=O)N[C@@H](C)C(=O)N[C@@H](C)C(N)=O)NC(=O)[C@H](CC(N)=O)NC(=O)[C@H](CC(C)C)NC(=O)[C@H](Cc2ccc(O)cc2)NC1=O [SEQ ID NO:42, Ac-[Glu^8,Lys^12,Nle^17,Ala^19,Asp^25,Leu^26,Lys^27,28,Ala^29-31]-VIP cyclo (Lys^21 →Asp^25)] (Ac-HSDAVFTENYTKLRKQ[Nle]AAKKYLNDLKKAAA-NH2; lactam 21-25) was tested. Which EC50 [1] did it give?
A: 0.61 nM

Q: What about the “Bronchodilator activity of VIP analogs” value [2] of the same compound?
A: 0.072 μg

Q: Which results are given for CCCC[C@H](NC(=O)[C@H](CCC(N)=O)NC(=O)[C@H](CCCCN)NC(=O)[C@H](CCCNC(=N)N)NC(=O)[C@H](CC(C)C)NC(=O)[C@H](CCCCN)NC(=O)[C@@H](NC(=O)[C@H](Cc1ccc(O)cc1)NC(=O)[C@H](CC(N)=O)NC(=O)[C@H](CC(=O)O)NC(=O)[C@@H](NC(=O)[C@H](Cc1ccc(F)cc1)NC(=O)[C@@H](NC(=O)[C@H](C)NC(=O)[C@H](CC(=O)O)NC(=O)[C@H](CO)NC(=O)[C@H](Cc1c[nH]cn1)NC(C)=O)C(C)C)[C@@H](C)O)[C@@H](C)O)C(=O)N[C@@H](C)C(=O)N[C@@H](C)C(=O)N[C@@H](CCCCN)C(=O)N[C@H]1CCCCNC(=O)C[C@@H](C(=O)N[C@H](C(=O)N[C@@H](CC(C)C)C(=O)N[C@H](C(=O)NCC(=O)NCC(=O)N[C@@H](CSCNC(C)=O)C(N)=O)[C@@H](C)O)C(C)C)NC(=O)[C@H](CC(N)=O)NC(=O)[C@H](CC(C)C)NC(=O)[C@H](Cc2ccc(O)cc2)NC1=O [SEQ ID NO:32, Ac-[p-F-Phe^6,Lys^12,Nle^17,Ala^19,Asp^25,Val^26,Thr^28,Gly^29,30,Cys(Acm)^31]-VIP (1-31)-NH2 cyclo (Lys^21 →Asp^25)] (Ac-HSDAV[Phe(4-F)]TDNYTKLRKQ[Nle]AAKKYLNDVLTGGC(Acm)-NH2; lactam 21-25)?
A: EC50 [1]: 0.44 nM; Bronchodilator activity of VIP analogs in guinea pigs, ED50 [2]: 0.19 μg

Q: Which EC50 [1] does the source give for CC(=O)N[C@@H](Cc1c[nH]cn1)C(=O)N[C@@H](CO)C(=O)N[C@@H](CC(=O)O)C(=O)N[C@@H](C)C(=O)N[C@H](C(=O)N[C@@H](Cc1ccccc1)C(=O)N[C@H](C(=O)N[C@@H](C)C(=O)N[C@@H](CC(N)=O)C(=O)N[C@@H](Cc1ccc(O)cc1)C(=O)N[C@H](C(=O)N[C@@H](CCCCN)C(=O)N[C@@H](CC(C)C)C(=O)N[C@@H](CCCNC(=N)N)C(=O)N[C@@H](CCCCN)C(=O)N[C@@H](C)C(=O)N[C@@H](C)C(=O)N[C@@H](C)C(=O)N[C@@H](C)C(=O)N[C@@H](CCCCN)C(=O)N[C@H]1CCCCNC(=O)C[C@@H](C(=O)N[C@@H](CC(C)C)C(=O)N[C@@H](CCCCN)C(=O)N[C@@H](CCCCN)C(N)=O)NC(=O)[C@H](C)NC(=O)[C@H](CC(C)C)NC(=O)[C@H](Cc2ccc(O)cc2)NC1=O)[C@@H](C)O)[C@@H](C)O)C(C)C [SEQ ID NO:62, Ac-[Ala^8,Lys^12,Ala^16,17,19,Ala^24,Asp^25,Leu^26,Lys^27,28]-VIP cyclo (Lys^21 →Asp^25)] (Ac-HSDAVFTANYTKLRKAAAAKKYLADLKK-NH2; lactam 21-25) here?
A: 0.1 nM

Q: What about the “Bronchodilator activity of VIP analogs” value [2] of the same compound?
A: 0.24 μg

Q: CCCC[C@H](NC(=O)[C@H](CCC(N)=O)NC(=O)[C@H](CCCCN)NC(=O)[C@H](CCCNC(=N)N)NC(=O)[C@H](CC(C)C)NC(=O)[C@H](CCCCN)NC(=O)[C@@H](NC(=O)[C@H](Cc1ccc(O)cc1)NC(=O)[C@H](CC(N)=O)NC(=O)[C@H](CC(=O)O)NC(=O)[C@@H](NC(=O)[C@H](Cc1ccccc1)NC(=O)[C@@H](NC(=O)[C@H](C)NC(=O)[C@H](CC(=O)O)NC(=O)[C@H](CO)NC(=O)[C@H](Cc1c[nH]cn1)NC(C)=O)C(C)C)[C@@H](C)O)[C@@H](C)O)C(=O)N[C@@H](C)C(=O)N[C@H](C(=O)N[C@H]1CCCCNC(=O)C[C@@H](C(=O)N[C@@H](CO)C(=O)N[C@H](C(=O)N[C@@H](CC(C)C)C(=O)N[C@H](C(N)=O)[C@@H](C)O)C(C)C)NC(=O)[C@H](CC(C)C)NC(=O)[C@H](Cc2ccc(O)cc2)NC(=O)[C@H](CCCCN)NC1=O)C(C)C [SEQ ID NO:27, Ac-[Lys^12,Nle^17,Asp^24,Val^26,Thr^28]-VIP cyclo (Lys^20 →Asp^24)] (Ac-HSDAVFTDNYTKLRKQ[Nle]AVKKYLDSVLT-NH2; lactam 20-24) was tested. Which EC50 [1] did it give?
A: 5.3 nM

Q: What about the “Bronchodilator activity of VIP analogs” value [2] of the same compound?
A: 2.3 μg

Q: With CCCC[C@H](NC(=O)[C@@H]1CCC(=O)NCCCC[C@H](NC(=O)[C@@H](NC(=O)[C@H](Cc2ccc(O)cc2)NC(=O)[C@H](CC(N)=O)NC(=O)[C@H](CC(=O)O)NC(=O)[C@@H](NC(=O)[C@H](Cc2ccccc2)NC(=O)[C@@H](NC(=O)[C@H](C)NC(=O)[C@H](CC(=O)O)NC(=O)[C@H](CO)NC(=O)[C@H](Cc2c[nH]cn2)NC(C)=O)C(C)C)[C@@H](C)O)[C@@H](C)O)C(=O)N[C@@H](CC(C)C)C(=O)N[C@@H](CCCNC(=N)N)C(=O)N[C@@H](CCCCN)C(=O)N1)C(=O)N[C@@H](C)C(=O)N[C@H](C(=O)N[C@@H](CCCCN)C(=O)N[C@@H](CCCCN)C(=O)N[C@@H](Cc1ccc(O)cc1)C(=O)N[C@@H](CC(C)C)C(=O)N[C@@H](CC(N)=O)C(=O)N[C@@H](CO)C(=O)N[C@H](C(=O)N[C@@H](CC(C)C)C(=O)N[C@H](C(N)=O)[C@@H](C)O)C(C)C)C(C)C [SEQ ID NO:26, Ac-[Lys^12,Glu^16,Nle^17,Val^26,Thr^28]-VIP cyclo (Lys^12 →Glu^16)] (Ac-HSDAVFTDNYTKLRKE[Nle]AVKKYLNSVLT-NH2; lactam 12-16) as the compound, how does the EC50 [1] read?
A: 37 nM

Q: What about the “Bronchodilator activity of VIP analogs” value [2] of the same compound?
A: 39 μg

Q: Which results are given for CCCC[C@H](NC(=O)[C@H](CCC(N)=O)NC(=O)[C@H](CCCCN)NC(=O)[C@H](CCCNC(=N)N)NC(=O)[C@H](CC(C)C)NC(=O)[C@H](CCCCN)NC(=O)[C@@H](NC(=O)[C@H](Cc1ccc(O)cc1)NC(=O)[C@H](CC(N)=O)NC(=O)[C@H](CCC(=O)O)NC(=O)[C@@H](NC(=O)[C@H](Cc1ccc(F)cc1)NC(=O)[C@@H](NC(=O)[C@H](C)NC(=O)[C@H](CC(=O)O)NC(=O)[C@H](CO)NC(=O)[C@H](Cc1c[nH]cn1)NC(C)=O)C(C)C)[C@@H](C)O)[C@@H](C)O)C(=O)N[C@@H](C)C(=O)N[C@H](C(=O)N[C@@H](CCCCN)C(=O)N[C@H]1CCCCNC(=O)C[C@@H](C(=O)N[C@H](C(=O)N[C@@H](CC(C)C)C(=O)N[C@H](C(=O)NCC(=O)NCC(=O)N[C@H](C(N)=O)[C@@H](C)O)[C@@H](C)O)C(C)C)NC(=O)[C@H](CC(N)=O)NC(=O)[C@H](CC(C)C)NC(=O)[C@H](Cc2ccc(O)cc2)NC1=O)C(C)C [SEQ ID NO:66, Ac-[p-F-Phe^6,Glu^8,Lys^12,Nle^17,Asp^25,Val^26,Thr^28,Gly^29,30,Thr^31]-VIP cyclo (Lys^21 →Asp^25)] (Ac-HSDAV[Phe(4-F)]TENYTKLRKQ[Nle]AVKKYLNDVLTGGT-NH2; lactam 21-25)?
A: EC50 [1]: 0.57 nM; Bronchodilator activity of VIP analogs in guinea pigs, ED50 [2]: 0.12 μg
